Square brackets hold non-standard residues; d marks the D form. Peptide text beside a SMILES is read from it. * marks the point of attachment. Cbz = O=C(OCc1ccccc1)*; Thz = O=C(O)[CH]1CSCN1; CH2F = FC*
How the values were obtained:
[1] = system: cortical neurons; assay: Hypoxia-induced apoptosis of cortical neurons assay; type: cell-based, Wistar rat; settings: Cortical neurone; rat embryo cortical neurons, hypoxia 42 hours, DNA fragmentation ELISA
Experimental: Apoptosis can be induced by growth factor withdrawal and by hypoxia. This assay measures the extent of DNA fragmentation indicating the effectiveness of caspase inhibitors to prevent apoptosis. Experimental Procedure Cortical neurons were dissociated from Wistar rat embryos (E17) by a modification of the procedure of Rogers et al 1997, Brain Res Bulletin 44:131. Cerebral cortices were isolated aseptically from 15–20 Wistar rat embryos. A cell suspension was prepared by mincing the cerebral cortices and digesting them with papain. Cells were washed with ovomucoid enzyme inhibitor and DNaseI and plated onto Poly D lysine coated plates in high glucose DMEM containing 10% heat-inactivated foetal calf serum, L-glutamine, penicillin and streptomycin. The yield of neurons was 10^7 per embryo and they were 80–90% viable as assessed by Trypan blue exclusion.
Cells were seeded at 1×10^6 cells per cm^2 in 96-well plates and cultured in complete medium (in high glucose DMEM containing 10% heat-inactivated foetal calf serum, L-glutamine, penicillin and streptomycin) at 37° C. in a normal atmosphere for 48 hours prior to the hypoxia experiments. Hypoxia was performed as described (Tamatani et al.1998, Molecular Brain Research, 58:27). The normal cell medium was replaced by hypoxic medium and cells were incubated in an atmosphere of 95% N2/5% CO2 for 42 hours. For compound testing, compounds were dissolved in DMSO at 100 mM then diluted in medium and added to the culture at the beginning of the hypoxic period. Apoptosis was measured using an ELISA assay to detect DNA fragmentation (Roche). Controls included cells cultured in aerobic conditions in serum-containing medium.

[2] = target: T1, recombinant, purified human Caspase-1 (Homo sapiens, UniProt P29466); assay: Caspase-1 enzyme inhibition assay (fluorogenic substrate cleavage); type: biochemical; settings: second order rate constant of enzyme inactivation; substrate Acetyl-Tyr-Val-Ala-Asp-amino-4-methylcoumarin
T1 sequence (P29466 120-297 limits assumed): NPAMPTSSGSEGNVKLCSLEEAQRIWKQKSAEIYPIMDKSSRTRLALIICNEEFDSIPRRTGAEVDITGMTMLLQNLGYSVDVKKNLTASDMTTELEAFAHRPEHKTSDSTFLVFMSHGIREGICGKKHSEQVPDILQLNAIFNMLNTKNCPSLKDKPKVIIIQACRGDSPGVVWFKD
T1 sequence (P29466 317-404 limits assumed): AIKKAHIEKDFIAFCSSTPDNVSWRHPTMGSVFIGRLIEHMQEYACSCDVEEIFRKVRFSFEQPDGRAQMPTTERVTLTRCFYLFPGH
From the text: (§1) The assays for caspase inhibition are based on the cleavage of a fluorogenic substrate by recombinant, purified human Caspases -1, -3, or -8. The assays are run in essentially the same way as those reported by Garcia-Calvo et al. (J. Biol. Chem. 273 (1998), 32608–32613), using a substrate specific for each enzyme. The substrate for Caspase-1 is Acetyl-Tyr-Val-Ala-Asp-amino-4-methylcoumarin (SEQ ID NO:1). The substrate for Caspases -3, and -8 is Acetyl-Asp-Glu-Val-Asp-amino-4-methylcoumarin (SEQ ID NO:2).
(§2) The observed rate of enzyme inactivation at a particular inhibitor concentration, kobs, is computed by direct fits of the data to the equation derived by Thornberry et al. (Biochemistry 33 (1994), […]) using a nonlinear least-squares analysis computer program (PRISM 2.0; GraphPad software). To obtain the second order rate constant, kinact, kobs values are plotted against their respective inhibitor concentrations and kinact values are subsequently calculated by computerized linear regression.

[3] = target: recombinant, purified human Caspase-8 (Homo sapiens, UniProt Q14790); assay: Caspase-8 enzyme inhibition assay (fluorogenic substrate cleavage); type: biochemical; settings: second order rate constant of enzyme inactivation; substrate Acetyl-Asp-Glu-Val-Asp-amino-4-methylcoumarin
Sequence of recombinant, purified human Caspase-8 (Q14790 217-374 limits assumed): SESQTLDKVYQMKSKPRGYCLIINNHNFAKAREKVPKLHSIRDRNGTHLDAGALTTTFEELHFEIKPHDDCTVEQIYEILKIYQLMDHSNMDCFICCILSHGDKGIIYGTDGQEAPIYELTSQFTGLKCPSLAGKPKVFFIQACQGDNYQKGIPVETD
Sequence of recombinant, purified human Caspase-8 (Q14790 385-479 limits assumed): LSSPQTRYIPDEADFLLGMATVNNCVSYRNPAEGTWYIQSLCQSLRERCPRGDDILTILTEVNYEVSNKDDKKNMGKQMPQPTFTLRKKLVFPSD
From the text: as §1, §2

[4] = system: IL-1β secretion from PBMC; assay: Inhibition of IL-1β secretion from mixed population of PBMC; type: cell-based; settings: human PBMC, LPS 50 ng/ml, 16–18 h, mature IL-1β in supernatant
Experimental: Processing of pre-IL-1β by caspase-1 can be measured in cell culture using a variety of cell sources. Human PBMC obtained from healthy donors provides a mixed population of lymphocyte and mononuclear cells that produce a spectrum of interleukins and cytokines in response to many classes of physiological stimulators.
The test compound is dissolved in Dimethyl Sulphoxide (DMSO,Sigma #D-2650) to give a 100 mM stock solution. This is diluted in complete medium consisting of RPMI containing 10% heat inactivated FCS (Gibco BRL #10099-141), 2 mM L-Glutamine (Sigma, #G-7513), 100U penicillin and 100 μg/ml streptomycin (Sigma #P-7539). The final concentration range of test compound is from 100 μM down to 6 nM over eight dilution steps. The highest concentration of test compound is equivalent to 0.1% DMSO in the assay.
Human PBMC are isolated from Buffy Coats obtained from the blood bank using centrifugation on Ficoll-Paque leukocyte separation medium (Amersham, #17-1440-02) and the cellular assay is performed in a sterile 96 well flat-bottomed plate (Nunc). Each well contains 100 μl of the cell suspension, 1×10^5 cells, 50 µl of compound dilutions and 50 μl of LPS (Sigma #L-3012) at 50 ng/ml final concentration. Controls consist of cells +/−LPS stimulation and a serial dilution of DMSO diluted in the same way as compound. The plates are incubated for 16–18 h at 37° C. in 5% CO2 & 95% humidity atmosphere.
After 16–18 h the supernatants are harvested after centrifuging the plates at 100×g at 18° C. for 15 min and assayed for their IL-1β content. Measurement of mature IL-1[…] in the supernatant is performed using the Quantikine kits (R&D Systems) according to manufacturer's instructions. Mature IL-1β levels of about 600–1500 pg/ml are observed for PBMCs in positive control wells.
The inhibitory potency of the compounds can be represented by an IC50 value, which is the concentration of inhibitor at which 50% of the mature IL-1β is detected in the supernatant as compared to the positive controls.

[5] = target: T2, recombinant, purified human Caspase-3 (Homo sapiens, UniProt P42574); assay: Caspase-3 enzyme inhibition assay (fluorogenic substrate cleavage); type: biochemical; settings: second order rate constant of enzyme inactivation; substrate Acetyl-Asp-Glu-Val-Asp-amino-4-methylcoumarin
T2 sequence (P42574 29-175 limits assumed): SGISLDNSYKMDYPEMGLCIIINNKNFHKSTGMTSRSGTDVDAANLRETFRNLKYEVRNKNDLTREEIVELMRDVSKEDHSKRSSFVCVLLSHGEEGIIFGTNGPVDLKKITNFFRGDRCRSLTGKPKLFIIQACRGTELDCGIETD
T2 sequence (P42574 176-277 limits assumed): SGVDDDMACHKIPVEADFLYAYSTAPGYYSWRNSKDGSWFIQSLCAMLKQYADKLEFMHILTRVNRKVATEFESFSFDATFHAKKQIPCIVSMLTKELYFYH
From the text: The assays for caspase inhibition are based on the cleavage of a fluorogenic substrate by recombinant, purified human Caspases -1, -3, or -8.
To obtain the second order rate constant, kinact, kobs values are plotted against their respective inhibitor concentrations and kinact values are subsequently calculated by computerized linear regression.

C-3 Kinact [5]	Compound	IC50 [1]	C-1 Kinact [2]	C-8 Kinact [3]	IC50 [4]
–	CC(C)[C@H](NC(=O)OCc1ccc(Cl)cc1)C(=O)NC(CC(=O)O)C(=O)CF (stereo partly drawn) [4-ClCbz-Val-Asp-fmk]	1980 nM	69 × 1000 M^−1s^−1	175 × 1000 M^−1s^−1	–
–	O=C(O)CC(NC(=O)C1CCCN1C(=O)OCc1ccccc1)C(=O)CF (stereo not drawn) [Cbz-Pro-Asp-fmk] (Cbz-Pro-Asp-CH2F; configuration not given here)	2780 nM	7.5 × 1000 M^−1s^−1	15.5 × 1000 M^−1s^−1	> 10000 nM
–	O=C(O)CC(NC(=O)C1CSCN1C(=O)OCc1ccccc1)C(=O)CF (stereo not drawn) [Cbz-Thz-Asp-fmk] (Cbz-[Thz]-Asp-CH2F; configuration not given here)	1560 nM	227.5 × 1000 M^−1s^−1	12 × 1000 M^−1s^−1	2310 nM
239.5 × 1000 M^−1s^−1	O=C(O)CC(NC(=O)[C@@H]1CCc2ccccc2N1C(=O)OCc1ccccc1)C(=O)CF (stereo partly drawn) [Example 3, [3S/R,(2S)]-3-(1-Benzyloxycarbonyl-1,2,3,4-tetrahydro-quinolinyl-2-carboxamido)-5-fluoro-4-oxo-pentanoic acid]	–	318 × 1000 M^−1s^−1	122 × 1000 M^−1s^−1	1150 nM
–	O=C(O)CC(NC(=O)[C@@H]1CCCCN1C(=O)OCc1cccc(Cl)c1)C(=O)CF (stereo partly drawn) [Example 5, [3S/R,(2S)]-3-(1-(3-Chlorobenzyloxycarbonyl)-2-piperidinecarboxamido)-5-fluoro-4-oxo-pentanoic acid]	–	–	–	500 nM
–	O=C(O)CC(NC(=O)[C@@H]1CCCCN1C(=O)OCc1cc(Cl)ccc1Cl)C(=O)CF (stereo partly drawn) [Example 23, [3S/R,(2S)]-5-Fluoro-3-(1-(2,5-dichlorobenzyloxycarbonyl)-2-piperidinecarboxamido)-4-oxo-pentanoic acid]	336 nM	–	–	–
181 × 1000 M^−1s^−1	O=C(O)CC(NC(=O)[C@@H]1CCCCN1C(=O)O[C@H](c1cccc(Cl)c1)C(F)(F)F)C(=O)CF (stereo partly drawn) [Example 34]	463 nM	518 × 1000 M^−1s^−1	839 × 1000 M^−1s^−1	–
